Data from patent US6316014A, “Microcide composition” (Centro de Bioactivos Quimicos (CBQ), priority 1996, dated 2001).
Blank lines part the entries; values can stand above or below the compound they belong to.

Experiments:
Musa sp. = assay: Development of "in vitro" plants of Musa sp., multiplication phase (scaleup); details: scaleups, standard method 1%
Method: An effective washout of the flasks and lids to be used in the production of in vitro plants was conducted using detergent, rinsing them with sufficient water and to then submerging the bottles in a sodium hypochlorite solution at 0.5% for a time interval never smaller than 3 minutes. Afterwards, the flasks are placed upside down and they should be used totally dry before 24 hours.
Once the culture medium is prepared and reaches a temperature of approximately 60-80° C. it is added the necessary weight of the formulation to obtain a concentration of 35 μg/ml and, then the volume required is poured into each of the flasks proceeding to the planting procedure after 24 hours.
Two scaleup studies were conducted on a Musa sp. culture in the multiplication phase. The death rate percentage during the three assays was 0.81% for the scaleups conducted adding the active principle and 1% for the standard method.
Two scaleup studies were conducted on a Musa sp. culture in the multiplication phase.

[1] = Water solubility and dissolution of active principle; format: physicochemical
[2] = Thermal stability of active principle; format: physicochemical
bacteria and fungi = details: EP-A 0 678 516; cited from earlier work
[3] = tested on: contamination of culture media; details: plants cultivated in vitro; cited from earlier work

- Dissolution rate in an aqueous medium ([1]; aqueous medium): reduced dissolution rate
- Water solubility ([1]; water): close-to-null water solubility
- Thermally stable up to [2]: up to 110 °C
Compound: O=[N+]([O-])C(Br)=Cc1ccc(Br)o1 [1-(5-bromophur-2-yl)-2-bromo-2-nitroethene]
- Death rate percentage (Musa sp.): 0.81%
- Antibacterial and antifungal activities (bacteria and fungi): powerful agent with antibacterial and antifungal activities

Compound: CO/N=C(\C(=O)N[C@@H]1C(=O)N2C(C(=O)O)=C(COC(C)=O)CS[C@H]12)c1csc(N)n1 [Cefotaxim]
- Prevention of contamination [3]: without satisfactory results

Compound: CN[C@@H]1[C@H](O[C@H]2[C@H](O[C@H]3[C@H](O)[C@@H](O)[C@H](NC(=N)N)[C@@H](O)[C@@H]3NC(=N)N)O[C@@H](C)[C@]2(O)CO)O[C@@H](CO)[C@H](O)[C@H]1O [Dihydrostreptomycin]
- Prevention of contamination [3]: without satisfactory results

Compound: CO[C@@H]1[C@@H](OC(N)=O)[C@@H](O)[C@H](Oc2ccc3c(O)c(NC(=O)c4ccc(O)c(CC=C(C)C)c4)c(=O)oc3c2C)OC1(C)C [Novobiocin]
- Prevention of contamination [3]: without satisfactory results
